{"source": "patent US11597708B2", "about": "“Inhibitors of heat shock factors and uses thereof” (HSF Pharmaceuticals SA, priority 2016, dated 2023)", "key": {"[1]": {"target": "T1, HSF1 (Homo sapiens, UniProt Q00613)", "T1 construct": "functionally linked to an hsp70b promoter and therefore controlled by endogenous HSF1; endogenous in cells; host or cells: HeLa cells / HeLa-derived cell line Z74", "T1 sequence (Q00613 1-529)": "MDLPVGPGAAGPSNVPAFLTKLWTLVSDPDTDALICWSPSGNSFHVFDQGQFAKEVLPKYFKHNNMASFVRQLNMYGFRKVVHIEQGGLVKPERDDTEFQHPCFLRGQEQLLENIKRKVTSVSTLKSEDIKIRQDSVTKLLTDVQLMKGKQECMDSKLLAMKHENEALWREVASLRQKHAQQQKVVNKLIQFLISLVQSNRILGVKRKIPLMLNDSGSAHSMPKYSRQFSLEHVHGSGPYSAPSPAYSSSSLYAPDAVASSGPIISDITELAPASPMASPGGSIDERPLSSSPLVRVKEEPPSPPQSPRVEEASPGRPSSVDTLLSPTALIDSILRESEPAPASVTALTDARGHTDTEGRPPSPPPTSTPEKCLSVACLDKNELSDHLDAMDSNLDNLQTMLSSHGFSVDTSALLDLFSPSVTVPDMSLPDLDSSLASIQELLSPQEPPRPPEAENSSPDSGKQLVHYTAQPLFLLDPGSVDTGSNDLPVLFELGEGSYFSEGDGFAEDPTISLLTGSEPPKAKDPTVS", "experiment": "Z74 cell-based reporter assay: heat-induced RLuc expression controlled by endogenous HSF1", "details": "Z74 cells", "from_the_text": "For screening this sublibrary, a cell-based assay was developed. We opted for a cell-based assay, because a cell-free assay would have had to be a DNA-binding assay. Such an assay would have limited discovery to molecules capable of interfering with the DNA-binding function of HSF1. This was thought to be too narrow a focus, considering that three of the four cavities identified in the HSF1 DNA-binding domain are not near the DNA interaction region. A straightforward cell-based assay, in which a HSF1-responsive gene would be assayed, was considered likely to be over-inclusive. Compounds would be scored as hits that inhibit any factor that is involved in HSF1 activation or prevents HSF1 deactivation. These factors include protein kinases, activators of protein phosphatases, factors affecting HSF1 mRNA stability, HSP90, HDAC6, etc. For developing a more discriminating cell-based assay, advantage was taken of the modular nature of HSF1. […] The cell-based assay developed (see below for the particular format employed) compared transactivation by wild type HSF1 and chimeric HSF1 in cells exposed to an HSF1-activating heat treatment in the presence of a sublibrary compound. A compound was scored as a hit, if it inhibited the activity of wild type HSF1 but not of chimeric HSF1.\nThe cell-based assay made use of HeLa-derived cell line Z74 that stably contains a gene for chimeric transcription factor LexA-(human) HSF1 under the control of a CMV early promoter, a firefly luciferase (flue) gene driven by a promoter responsive to the latter chimeric transcription factor and a Renilla luciferase (rluc) gene functionally linked to an hsp70b promoter and therefore controlled by endogenous HSF1 (FIG. 1A). As is shown in FIGS. 1B & C, the reporter genes responded similarly to heat dose, i.e., their activation depended on both duration of heat exposure and temperature of the exposure. […] Depletion of HSF1 (and LexA-HSF1) by siRNA supported the notion that this stress regulation is mediated by HSF1 (and LexA-HSF1). Therefore, the Z74 line was well suited for use in a screening assay aimed at discovering molecules that inhibit heat-induced HSF1 activity through interaction with the transcription factor's DNA-binding domain.\nThe compounds of the afore-mentioned biased sublibrary were screened in cell line Z74 at 12.5 and 25 μM concentrations. Typically, Z74 cultures in 96-well plates were exposed to compound or vehicle for 2 h, heat-treated at 43.0° C. for 30 min, and incubated further for 6 h at 37° C. to allow for accumulation of the luciferases. RLuc and FLuc activities were determined, typically using the Dual-Glo® Luciferase Assay System (Promega Corp., Madison, Wis.), and reading luciferase light counts in a Wallac Microbeta Trilux-1450 Luminometer (PerkinElmer, Waltham, Mass.). IHSF 001 was one of two library compounds that inhibited RLuc expression but not FLuc expression in heat-treated Z74 cells (Table 1; FIG. 2A). Therefore, IHSF 001 is an inhibitor of HSF1 function that specifically acts through the HSF1 DNA-binding domain. […] A corroborating experiment utilized a cell line containing an hsp70b promoter-driven fluc gene. […] IHSF 001 is (E)-ethyl 4-oxo-4-(thiazol-2-ylamino)but-2-enoate. The compound can be obtained from commercial sources (e.g., AKE-PB-90340538, Akos)."}, "[2]": {"target": "T2, HSE DNA-binding activity (Homo sapiens, UniProt Q00613)", "T2 construct": "functionally linked to an hsp70b promoter and therefore controlled by endogenous HSF1; endogenous in cells; host or cells: HeLa cells / HeLa-derived cell line Z74", "T2 sequence (Q00613 1-529)": "T1 sequence (Q00613 1-529)", "experiment": "EMSA using extracts of heat-treated HeLa cells, in the presence of IHSF", "assay_type": "biochemical", "details": "extracts of HeLa cells heat-treated at 43° C. for 30 min; concentrations as high as about 0.5 mM", "experimental": "Electrophoretic mobility shift assays (EMSA) using a radiolabeled HSE DNA probe were carried out to assess HSF1 DNA-binding activity in extracts of heat-treated (43° C./30 min) HeLa cells that had been exposed to different concentrations of compounds 058 or 115 (FIG. 3A, top panels). […] HSF1 degradation correlated well with the observed decrease in DNA-binding activity. Therefore, HSF1 degradation provides a sufficient explanation for the reduced HSE DNA-binding activity in cells treated with IHSF 058. […] EMSA were also carried out using extracts of HeLa cells that had been heat-treated at 43° C. for 30 min."}}}
{"smiles": "CCOC(=O)/C=C/C(=O)Nc1ncc(-c2ccccc2C)s1", "note": "[IHSF 059, (E)-3-(5-o-Tolyl-thiazol-2-ylcarbamoyl)-acrylic acid ethyl ester]", "values": [{"measurement": "IC50", "setting": "[1]; inhibition of HSF1 activity [RLuc]", "result": 14.7, "unit": "µM"}, {"measurement": "inhibition at 12.5 µM", "setting": "[1]; 12.5 μM IHSF, negative values marked *: compound enhanced rLuc activity, read-out: Inhibition of HSF1 activity at 12.5 μM IHSF [RLuc] (%)", "result": 45, "unit": "%"}, {"measurement": "inhibition at 25 µM", "setting": "[1]; 25 μM IHSF, 2 h exposure, 43° C. 30 min, 6 h at 37° C., read-out: Inhibition of HSF1 activity at 25 μM IHSF [RLuc] (%)", "result": 72, "unit": "%"}, {"measurement": "HSE DNA-binding activity (EMSA) in the presence of IHSF", "setting": "[2]", "result": "no reduction"}]}
